Source: publication PMC8776092, “A Toxoplasma gondii Oxopurine Transporter Binds Nucleobases and Nucleosides Using Different Binding Modes” (International Journal of Molecular Sciences, 2022)
Where “and” joins values, the source holds several entries; their conditions need not be identical. Equal values may be shown once. Read-outs that look alike come from different tables or passages of the source.

Molecular target: T1, Tg244440 (Toxoplasma gondii, UniProt A0A125YNC9)
T1 sequence (A0A125YNC9 1-462): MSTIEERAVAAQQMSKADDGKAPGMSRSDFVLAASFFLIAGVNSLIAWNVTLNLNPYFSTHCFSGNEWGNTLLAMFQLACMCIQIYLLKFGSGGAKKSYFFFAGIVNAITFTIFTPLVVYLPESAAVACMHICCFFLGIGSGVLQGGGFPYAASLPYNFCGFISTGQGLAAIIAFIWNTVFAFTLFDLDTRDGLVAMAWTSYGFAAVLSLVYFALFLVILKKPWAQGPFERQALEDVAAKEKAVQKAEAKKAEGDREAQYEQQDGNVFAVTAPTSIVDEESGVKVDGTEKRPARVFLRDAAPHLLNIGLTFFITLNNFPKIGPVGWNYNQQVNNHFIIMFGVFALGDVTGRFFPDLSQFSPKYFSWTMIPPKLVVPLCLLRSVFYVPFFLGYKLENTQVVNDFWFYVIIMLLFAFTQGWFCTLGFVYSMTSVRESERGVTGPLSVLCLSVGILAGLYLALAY
Experiment: [3H]-guanine uptake and its inhibition in T. brucei TbNB-KO procyclics expressing Tg244440 (clone F5)
Type: cell-based
Conditions: for Ki: competition with 50 nM [3H]-guanine, 30 s, Cheng-Prusoff; for ΔG^0 (Gibbs free energy of interaction): calculated from Km or Ki, ΔG0 = −RTln(Ki)
Method: Briefly, PCF cells of T. brucei in logarithmic growth were harvested by centrifugation at 1000× g for 10 min, washed twice in AB and then resuspended in fresh buffer at a final density of 10^8 cells/mL. […] Immediately after finishing the assay, all tubes were flash-frozen in liquid nitrogen and the cell pellets were cut into scintillation vials and lysed with a solution of 2% SDS for one hour under agitation. Then, 3 mL of scintillation fluid (Scintilogic U, Lablogic) was added to each vial and left agitating overnight on a rocking platform. The next morning, the vials were vigorously shaken to ensure optimal mixing and the scintillation was measured in a 300SL (Hidex) scintillation counter. All assays were carried out in triplicate. All experimental data such as Km, Ki and Vmax values are the average and SEM of at least three separate experiments, each in triplicate, unless otherwise indicated.
Background scintillation was measured in vials containing no cells or radiolabeled substrate, and counts associated with extracellular radiolabel were calculated from samples where cells were briefly incubated with the same concentration of radiolabel, but in the presence of saturating concentrations of non-radiolabeled substrate before centrifugation through oil. The average of the three control replicates was subtracted from each data point.

| Compound | Ki (Ki) [µM] | ΔG^0 (Gibbs free energy of interaction) [kcal/mol] | further results |
| --- | --- | --- | --- |
| Nc1ccnc2c1ncn2[C@@H]1O[C@H](CO)[C@@H](O)[C@H]1O [1-deazaadenosine] | 191 ± 10 | -5.07 | δ(ΔG^0) relative to Adenosine: 0.621 kcal/mol |
| O=C1CC=Nc2nc[nH]c21 [1-deazahypoxanthine] | 194 ± 43 | -5.07 | δ(ΔG^0) relative to Hypoxanthine: 2.63 kcal/mol |
| OC[C@H]1O[C@@H](n2cnc3c(O)ccnc32)[C@H](O)[C@@H]1O [1-deazainosine] | 524 ± 53 | – | δ(ΔG^0) relative to Inosine: 2.89 kcal/mol |
| Nc1nc(N)c2[nH]cnc2n1 [2,6-diaminopurine] | 211 ± 3.5 | -5.02 | δ(ΔG^0) relative to Adenine: -0.406 kcal/mol |
| Nc1ncnc2c1ncn2[C@H]1C[C@H](O)[C@@H](CO)O1 [2′-deoxyadenosine] | 83.9 ± 6.2 | -5.57 | δ(ΔG^0) relative to Adenosine: 0.12 kcal/mol |
| Nc1nc2c(ncn2[C@H]2C[C@H](O)[C@@H](CO)O2)c(=O)[nH]1 [2′-deoxyguanosine] | 281 ± 6 | -4.85 | δ(ΔG^0) relative to Guanosine: 2.63 kcal/mol; δ(ΔG^0) relative to Guanosine (listed as 2′-Deoxyguanosine): 2.63 kcal/mol |
| OC[C@H]1O[C@@H](n2cnc3c(O)ncnc32)C[C@@H]1O [2′-deoxyinosine] | 117 ± 12 | -5.35 | δ(ΔG^0) relative to Inosine: 1.98 kcal/mol |
| Nc1nccc2c1ncn2[C@@H]1O[C@H](CO)[C@@H](O)[C@H]1O [3-deazaadenosine] | 1220 ± 140 | -3.97 | δ(ΔG^0) relative to Adenosine: 1.72 kcal/mol |
| O=c1[nH]ccc2nc[nH]c12 [3-deazahypoxanthine] | 59.5 ± 7.2 | -5.76 | δ(ΔG^0) relative to Hypoxanthine: 1.94 kcal/mol |
| Cn1c(=O)[nH]c(=O)c2[nH]cnc21 [3-methylxanthine] | 14.6 ± 3.1 | -6.6 | – |
| Nc1ncnc2c1ccn2[C@@H]1O[C@H](CO)C[C@H]1O [3′-deoxy,7-deazaadenosine] | 797 ± 116 | -4.23 | δ(ΔG^0) relative to Adenosine: 1.46 kcal/mol |
| Nc1ncnc2c1ncn2[C@@H]1O[C@H](CO)C[C@H]1O [3′-deoxyadenosine] | 71.9 ± 2.3 | -5.64 | δ(ΔG^0) relative to Adenosine: 0.024 kcal/mol |
| Nc1nc2c(ncn2[C@@H]2O[C@H](CO)C[C@H]2O)c(=O)[nH]1 [3′-deoxyguanosine] | 196 ± 12 | -5.07 | δ(ΔG^0) relative to Guanosine: 2.25 kcal/mol and 2.41 kcal/mol |
| OC[C@@H]1C[C@@H](O)[C@H](n2cnc3c(O)ncnc32)O1 [3′-deoxyinosine] | 102 ± 15 | -5.45 | δ(ΔG^0) relative to Inosine: 1.91 kcal/mol |
| C[C@H]1O[C@@H](n2cnc3c(N)ncnc32)[C@H](O)[C@@H]1O [5′-deoxyadenosine] | 85.2 ± 4.2 | -5.54 | δ(ΔG^0) relative to Adenosine: 0.14 kcal/mol |
| C[C@H]1O[C@@H](n2cnc3c(O)ncnc32)[C@H](O)[C@@H]1O [5′-deoxyinosine] | 35.3 ± 3 | -6.07 | δ(ΔG^0) relative to Inosine: 1.29 kcal/mol |
| Clc1ncnc2nc[nH]c12 [6-Chloropurine] | 109 ± 8 | -5.4 | δ(ΔG^0) relative to Hypoxanthine: 2.29 kcal/mol |
| Sc1ncnc2nc[nH]c12 [6-Mercaptopurine] | 3.6 ± 0.8 | -7.43 | δ(ΔG^0) relative to Hypoxanthine: 0.287 kcal/mol |
| CCOc1ncnc2c1c(Cl)cn2[C@@H]1O[C@H](CO)[C@@H](O)[C@H]1O [6-O-ethyl,7-deaza,7-Cl-inosine] | – | -5.14 | Ki (read-out: Ki): 169 ± 10 µM; δ(ΔG^0) relative to Inosine: 2.2 kcal/mol |
| COc1ncnc2c1c(Cl)cn2[C@@H]1O[C@H](CO)[C@@H](O)[C@H]1O [6-O-methyl,7-deaza,7-Cl-inosine] | – | -6 | Ki (read-out: Ki): 39.6 ± 2.8 µM; δ(ΔG^0) relative to Inosine: 1.36 kcal/mol |

| Compound | Ki (Ki) [µM] | ΔG^0 (Gibbs free energy of interaction) [kcal/mol] | further results |
| --- | --- | --- | --- |
| Nc1nc2nc[nH]c2c(=S)[nH]1 [6-Thioguanine] | 1.64 ± 0.25 | -7.89 | δ(ΔG^0) relative to Guanine: 0.17 kcal/mol |
| OC[C@H]1O[C@@H](n2cnc3c(S)ncnc32)[C@H](O)[C@@H]1O [6-thioinosine] | 7.3 ± 1.2 | -7 | δ(ΔG^0) relative to Inosine: 0.335 kcal/mol |
| O=c1[nH]cnc2[nH]nc(Br)c12 [7-Br-allopurinol] | – | -5.71 | Ki (read-out: Ki): 65.7 ± 3.7 µM |
| OC[C@H]1O[C@@H](n2ccc3c(O)ncnc32)C[C@@H]1O [7-deaza-2′-deoxyinosine] | 52.3 ± 8.4 | -5.83 | δ(ΔG^0) relative to 2′-Deoxyinosine (relative to 2′-Deoxyinosine): -0.478 kcal/mol |
| OC[C@@H]1C[C@@H](O)[C@H](n2ccc3c(O)ncnc32)O1 [7-deaza-3′-deoxyinosine] | 70.8 ± 11.2 | -5.66 | δ(ΔG^0) relative to 3′-Deoxyinosine (relative to 3′-Deoxyinosine): -0.22 kcal/mol |
| OC[C@H]1O[C@@H](n2cc(Br)c3c(O)ncnc32)[C@H](O)[C@@H]1O [7-deaza-7-Bromoinosine] | 7.8 ± 1.2 | -6.98 | Affinity for Tg244440 (in words): high affinity; δ(ΔG^0) relative to Inosine: 0.382 kcal/mol |
| OC[C@H]1O[C@@H](n2cc(Cl)c3c(O)ncnc32)[C@H](O)[C@@H]1O [7-deaza-7-Chloroinosine] | 8.9 ± 1.3 | -6.88 | Affinity for Tg244440 (in words): high affinity; δ(ΔG^0) relative to Inosine: 0.454 kcal/mol |
| Nc1nc2c(c(=O)[nH]1)CC=N2 [7-deazaguanine] | 49.2 ± 5.8 | -5.88 | δ(ΔG^0) relative to Guanine: 2.17 kcal/mol |
| O=c1[nH]cnc2c1CC=N2 [7-deazahypoxanthine] | 318 ± 30 | -4.78 | δ(ΔG^0) relative to Hypoxanthine: 2.94 kcal/mol |
| OC[C@H]1O[C@@H](n2ccc3c(O)ncnc32)[C@H](O)[C@@H]1O [7-deazainosine] | 6.32 ± 0.32 | -7.1 | δ(ΔG^0) relative to Inosine: 0.263 kcal/mol |
| O=c1[nH]cnc2nn[nH]c12 [8-azahypoxanthine] | > 1000 | – | inhibition at 1000 µM (read-out: Inhibition of the transport of 50 nM [3H]-guanine): < 50%; δ(ΔG^0) relative to Hypoxanthine: >3.61 kcal/mol |
| Cn1cnc2c(=O)cc[nH]c21 [9-Me,1-deazahypoxanthine] | – | – | Ki (read-out: Ki): > 1000 µM; δ(ΔG^0) relative to Hypoxanthine: >3.61 kcal/mol |
| Nc1nc2cc[nH]c2c(=O)[nH]1 [9-deazaguanine] | 9.64 ± 1.59 | -6.84 | δ(ΔG^0) relative to Guanine: 1.22 kcal/mol |
| O=c1[nH]cnc2cc[nH]c12 [9-deazahypoxanthine] | 9.12 ± 0.66 | -6.88 | δ(ΔG^0) relative to Hypoxanthine: 0.837 kcal/mol |
| O=c1[nH]c(=O)c2[nH]ccc2[nH]1 [9-deazaxanthine] | 48.2 ± 5.4 | -5.88 | δ(ΔG^0) relative to Xanthine (relative to Xanthine): 0.072 kcal/mol |
| Nc1ncnc2[nH]cnc12 [Adenine] | 425 ± 80 | -4.59 | Affinity for Tg244440 (in words): Low affinity; δ(ΔG^0) relative to Hypoxanthine: 3.11 kcal/mol |
| Oc1ncnc2[nH]ncc12 [Allopurinol] | 185 ± 15 | -5.09 | δ(ΔG^0) relative to Hypoxanthine: 2.61 kcal/mol |
| Nc1ncnc2n[nH]cc12 [Aminopurinol] | – | -4.97 | Ki (read-out: Ki): 223 ± 27 µM; δ(ΔG^0) relative to Adenine: -0.382 kcal/mol |
| Nc1nc2c(ncn2[C@@H]2O[C@H](CO)[C@@H](O)[C@H]2O)c(=O)[nH]1 [Guanosine] | 3.3 ± 0.3 | -7.48 | δ(ΔG^0) relative to Guanine: 0.574 kcal/mol |
| OC[C@H]1O[C@@H](n2cnc3cncnc32)[C@H](O)[C@@H]1O [Nebularine, 9-(β-D-ribofuranosyl)purine] | 491 ± 75 | -4.52 | ΔG^0 (Gibbs free energy of interaction) (listed as nebularine): 4.52 kcal/mol; δ(ΔG^0) relative to Adenosine: 1.17 kcal/mol; δ(ΔG^0) relative to Inosine: 2.84 kcal/mol |
